Measurements published in ChEMBL document CHEMBL3112540, “Synthesis of halogenated 4-quinolones and evaluation of their antiplasmodial activity” (Bioorg Med Chem Lett, 2014).
Calls of active or inactive are those of the source. The calls are words filed in the database; no cut-off is given here.

How the values were obtained:
[1] = tested on: Plasmodium falciparum; experiment: Antiplasmodial activity chloroquine-resistant Plasmodium falciparum Dd2 by lactate dehydrogenase assay; type: functional, organism-based
[2] = tested on: Plasmodium falciparum; experiment: Antiplasmodial activity chloroquine-sensitive Plasmodium falciparum NF54 by lactate dehydrogenase assay; type: functional, organism-based
[3] = tested on: Candida albicans; experiment: Antimicrobial activity against Candida albicans; type: functional, organism-based
[4] = tested on: Escherichia coli; experiment: Antimicrobial activity against Escherichia coli; type: functional, organism-based
[5] = tested on: Aspergillus flavus; experiment: Antimicrobial activity against Aspergillus flavus; type: functional, organism-based
[6] = tested on: CHO; experiment: Cytotoxicity against CHO cells by MTT assay; type: cell-based; settings: Cricetulus griseus
[7] = tested on: Staphylococcus aureus; experiment: Antimicrobial activity against Staphylococcus aureus; type: functional, organism-based
[8] = in vitro; settings: hamster
Description: Selectivity index, ratio of IC50 for CHO cells to IC50 for chloroquine-sensitive Plasmodium falciparum NF54

Row | SMILES | IC50 [1] [µM] | IC50 [2] [µM] | Activity [3] | Activity [4] | Activity [5] | IC50 [6] [µM] | Activity [7] | selectivity ratio [8]
1 | C[C@H]1[C@H](OC(=O)CCC(=O)O)O[C@@H]2O[C@@]3(C)CC[C@H]4[C@H](C)CC[C@@H]1[C@@]24OO3 [ARTESUNATE] | 0.046 | 0.005 |  |  |  |  |  | 
2 | CC(Br)(CBr)Cn1cc(Br)c(=O)c2ccc(Cl)cc21 (stereo unspecified) | 4.02 | 3.18 | inactive | inactive | inactive | 31.8 | inactive | 10
3 | CC[C@H]1CN2CCc3cc(OC)c(OC)cc3[C@@H]2C[C@@H]1C[C@H]1NCCc2cc(OC)c(OC)cc21 [EMETINE] |  |  |  |  |  | 0.092 |  | 
4 | CC(Br)(CBr)Cn1cc(Br)c(=O)c2ccccc21 (stereo unspecified) |  | 35.2 | inactive | inactive | inactive |  | inactive | 
